Assay results published in patent US20260137706A1, “METHODS OF TREATING INFLAMMATORY DISEASES” (INTERLINE THERAPEUTICS, INC., priority 2023, published 2026).

Assays:
[1] = biological target: T1, GST-RIPK2 fusion protein (human RIPK2, amino acids 1-310) (Homo sapiens, UniProt O43353); test: RIPK2 binding competition assay (TR-FRET, Tracer 199 displacement); settings: 10 nM Tracer 199, 1 nM GST-RIPK2, read-out: RIPK2 IC50
T1 construct: made in house; host or cells: baculovirus infected Sf9 cells
In short: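 GST-RIPK2 (human aa 1-310, Sf9-expressed; final 1 nM) with Tracer 199 (final 10 nM) and Tb-anti-GST (final 0.5 nM) in Tris pH 7.5 buffer, 45 min at 22 °C. TR-FRET 665/620 nm ratio after 337 nm excitation; normalized to no-inhibitor (0%) and no-protein (−100%), giving IC50.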

[2] = biological target: T2, binding of His-XIAP(BIR2)-avi fusion protein to GST-RIPK2 fusion protein (RIPK2/XIAP) (Homo sapiens, UniProt O43353); test: RIPK2-XIAP binding competition PPI assay (TR-FRET); settings: RIPK2/XIAP binding competition PPI assay; for Emax: Amax, read-out: PPI Amax bin; for IC50: read-out: PPI IC50 bin
T2 construct: made in house; host or cells: baculovirus infected Sf9 cells
In short: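 Compounds (in DMSO, 100-fold stock) incubated 120 min at 23 °C with 1 nM GST-RIPK2 (aa 1-310) and 25 nM His-XIAP(BIR2 aa 152-231)-avi, plus anti-His-XL665 and anti-GST-Tb, in pH 7.5 Tris buffer. Read-out: 665/520 nm emission ratio. Normalized to no-inhibitor (0%) and 50 nM GSK583 (−100%); Amax binned A–D.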

[3] = system: NF-κB pathway (SEAP) in THP1-Dual cells; test: THP-1 Dual cell SEAP assay (L18-MDP stimulated); assay type: cell-based; settings: Homo sapiens, THP1-Dual, read-out: NF-κB THP1 IC50 bin
In short: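 THP1-Dual cells (~25,000/well) were preincubated 30 min with serially diluted compounds, then stimulated with 10 ng/mL L18-MDP (final) for 20-24 h at 37 °C. Supernatant SEAP was read with QUANTI-Blue at OD 620-655 nm after 2 h. IC50 came from non-linear fits of % inhibition versus DMSO/L18-MDP controls after media-blank subtraction.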

T1 sequence (O43353 1-310): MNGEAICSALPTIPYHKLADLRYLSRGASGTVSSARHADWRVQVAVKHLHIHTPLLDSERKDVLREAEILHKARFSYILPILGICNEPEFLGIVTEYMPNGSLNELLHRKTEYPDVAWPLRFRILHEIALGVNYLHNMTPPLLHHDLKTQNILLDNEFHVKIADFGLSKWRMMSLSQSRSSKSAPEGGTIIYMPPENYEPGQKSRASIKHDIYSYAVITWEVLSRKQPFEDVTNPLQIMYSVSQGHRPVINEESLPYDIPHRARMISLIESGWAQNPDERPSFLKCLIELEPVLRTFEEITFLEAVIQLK
T2 sequence (O43353 1-310 limits assumed): as the sequence (O43353 1-310) above

SMILES	IC50 [1] [nM]	Emax [2] [%]	IC50 [2] [nM]	IC50 [3] [nM]
Cc1c[nH]c2ncc(-c3cnc4cc(OCCO)c(S(=O)(=O)C(C)(C)C)cn34)cc12 [Example 218, 2-((6-(tert-butylsulfonyl)-3-(3-methyl-1H-pyrrolo[2,3-b]pyridin-5-yl)imidazo[1,2-a]pyridin-7-yl)oxy)ethan-1-ol]	2.5 to 20	55 to 80	2.5 to 20	> 1000
CC(C)(C)S(=O)(=O)c1cn2c(-c3cnc4[nH]cc(Cl)c4c3)cnc2cc1OCCO [Example 219, 2-((6-(tert-butylsulfonyl)-3-(3-chloro-1H-pyrrolo[2,3-b]pyridin-5-yl)imidazo[1,2-a]pyridin-7-yl)oxy)ethan-1-ol]	1 to 2.5	> 80	1 to 2.5	50 to 250
CC(C)(C)S(=O)(=O)c1cn2c(-c3cnc4[nH]cc(F)c4c3)cnc2cc1OCCO [Example 220, 2-((6-(tert-butylsulfonyl)-3-(3-fluoro-1H-pyrrolo[2,3-b]pyridin-5-yl)imidazo[1,2-a]pyridin-7-yl)oxy)ethan-1-ol]	< 1	> 80	< 1	< 50
CC(C)(C)S(=O)(=O)c1cn2c(-c3cnc4ccnn4c3)cnc2cc1OCCO [Example 221, 2-((6-(tert-butylsulfonyl)-3-(pyrazolo[1,5-a]pyrimidin-6-yl)imidazo[1,2-a]pyridin-7-yl)oxy)ethan-1-ol]	> 20	> 80	> 20	> 1000
CC(C)(C)S(=O)(=O)c1cn2c(-c3cnc4[nH]ncc4c3)cnc2cc1OCCO [Example 222, 2-((6-(tert-butylsulfonyl)-3-(1H-pyrazolo[3,4-b]pyridin-5-yl)imidazo[1,2-a]pyridin-7-yl)oxy)ethan-1-ol]	2.5 to 20	< 30	> 20	> 1000
COc1c(F)cc(-c2cnc3cc(OCCO)c(S(=O)(=O)C(C)(C)C)cn23)cc1NS(C)(=O)=O [Example 223, N-(5-(6-(tert-butylsulfonyl)-7-(2-hydroxyethoxy)imidazo [1,2-a]pyridin-3-yl)-3-fluoro-2-methoxyphenyl) methanesulfonamide]	< 1	55 to 80	< 1	50 to 250
CCS(=O)(=O)Nc1cc(-c2cnc3cc(OCCO)c(S(=O)(=O)C(C)(C)C)cn23)cc(F)c1OC [Example 224, N-(5-(6-(tert-butylsulfonyl)-7-(2-hydroxyethoxy)imidazo [1,2-a]pyridin-3-yl)-3-fluoro-2-methoxyphenyl) ethanesulfonamide]	< 1	> 80	< 1	< 50
COc1c(F)cc(-c2cnc3cc(OCCO)c(S(=O)(=O)C(C)(C)C)cn23)cc1NS(=O)(=O)c1cnn(C)c1 [Example 225, N-(5-(6-(tert-butylsulfonyl)-7-(2-hydroxyethoxy)imidazo[1,2-a]pyridin-3-yl)-3-fluoro-2-methoxyphenyl)-1-methyl-1H-pyrazole-4-sulfonamide]	< 1	> 80	< 1	< 50
COc1c(F)cc(-c2cnn3cc(OCCO)c(S(=O)(=O)C(C)(C)C)cc23)cc1NS(=O)(=O)c1cnn(C)c1 [Example 226, N-(5-(5-(tert-butylsulfonyl)-6-(2-hydroxyethoxy)pyrazolo [1,5-a]pyridin-3-yl)-3-fluoro-2-methoxyphenyl)-1-methyl-1H-pyrazole-4-sulfonamide]	< 1	> 80	< 1	< 50
COc1cc2ncc(-c3cc(F)c(OC)c(NS(=O)(=O)c4cnn(CCO)c4)c3)n2cc1S(=O)(=O)C(C)(C)C [Example 227, N-(5-(6-(tert-butylsulfonyl)-7-methoxyimidazo[1,2-a]pyridin-3-yl)-3-fluoro-2-methoxyphenyl)-1-(2-hydroxyethyl)-1H-pyrazole-4-sulfonamide]	1 to 2.5	> 80	< 1	< 50
C[C@H](CO)COc1cc2ncc(-c3cc4cc[nH]c4nc3F)n2cc1S(=O)(=O)C(C)(C)C [Example 228, (R)-3-((6-(tert-butylsulfonyl)-3-(6-fluoro-1H-pyrrolo[2,3-b]pyridin-5-yl)imidazo[1,2-a]pyridin-7-yl)oxy)-2-methylpropan-1-ol]	< 1	> 80	< 1	< 50
CC(C)(C)S(=O)(=O)c1cn2c(-c3cnc4[nH]cnc4c3)cnc2cc1OCCO [Example 229, 2-((6-(tert-butylsulfonyl)-3-(3H-imidazo[4,5-b]pyridin-6-yl)imidazo[1,2-a]pyridin-7-yl)oxy)ethan-1-ol]	> 20	< 30	> 20	> 1000
CC1(C)CNc2ncc(-c3cnc4cc(OCCO)c(S(=O)(=O)C(C)(C)C)cn34)cc21 [Example 230, 2-((6-(tert-butylsulfonyl)-3-(3,3-dimethyl-2,3-dihydro-1H-pyrrolo[2,3-b]pyridin-5-yl)imidazo[1,2-a]pyridin-7-yl)oxy)ethan-1-ol]	> 20	< 30	> 20	> 1000
CC(C)(C)S(=O)(=O)c1cn2c(-c3cnc4[nH]nnc4c3)cnc2cc1OCCO [Example 231, 2-((3-(3H-[1,2,3]triazolo[4,5-b]pyridin-6-yl)-6-(tert-butylsulfonyl)imidazo [1,2-a]pyridin-7-yl)oxy)ethan-1-ol]	> 20	30 to 55	> 20	> 1000
Cc1cc2cc(-c3cnc4cc(OCCO)c(S(=O)(=O)C(C)(C)C)cn34)cnc2[nH]1 [Example 232, 2-((6-(tert-butylsulfonyl)-3-(2-methyl-1H-pyrrolo[2,3-b]pyridin-5-yl)imidazo[1,2-a]pyridin-7-yl)oxy)ethan-1-ol]	2.5 to 20	30 to 55	< 1	> 1000
CC(C)(C)S(=O)(=O)c1cn2c(-c3cnc4[nH]c(Cl)cc4c3)cnc2cc1OCCO [Example 233, 2-((6-(tert-butylsulfonyl)-3-(2-chloro-1H-pyrrolo[2,3-b]pyridin-5-yl)imidazo[1,2-a]pyridin-7-yl)oxy)ethan-1-ol]	2.5 to 20	< 30	> 20	> 1000
COc1cc2ncc(-c3cc(F)c(OC)c(NS(=O)(=O)c4cnn(C)c4)c3)n2cc1C1(F)CCN(C)CC1 [Example 234, N-(3-fluoro-5-(6-(4-fluoro-1-methylpiperidin-4-yl)-7-methoxyimidazo[1,2-a]pyridin-3-yl)-2-methoxyphenyl)-1-methyl-1H-pyrazole-4-sulfonamide]	< 1	> 80	< 1	< 50
CC(C)(C)S(=O)(=O)c1cn2c(-c3cnc4nccn4c3)cnc2cc1OCCO [Example 235, 2-((6-(tert-butylsulfonyl)-3-(imidazo[1,2-a]pyrimidin-6-yl)imidazo[1,2-a]pyridin-7-yl)oxy)ethan-1-ol]	> 20	< 30	> 20	> 1000
CC(C)(C)S(=O)(=O)c1cn2c(-c3cc4c(F)c[nH]c4nc3F)cnc2cc1OCCO [Example 236, 2-((6-(tert-butylsulfonyl)-3-(3,6-difluoro-1H-pyrrolo[2,3-b]pyridin-5-yl)imidazo[1,2-a]pyridin-7-yl)oxy)ethan-1-ol]	< 1	> 80	< 1	< 50
CC(C)(C)S(=O)(=O)c1cn2c(-c3cnc4c(c3)C3(CC3)CN4)cnc2cc1OCCO [Example 237, 2-((6-(tert-butylsulfonyl)-3-(1′,2′-dihydrospiro [cyclopropane-1,3′-pyrrolo[2,3-b]pyridin] -5′-yl)imidazo[1,2-a]pyridin-7-yl)oxy)ethan-1-ol]	> 20	< 30	> 20	> 1000
CCOc1cc2ncc(-c3cc4cc[nH]c4nc3F)n2cc1S(=O)(=O)C(C)C [Example 238, 7-ethoxy-3-(6-fluoro-1H-pyrrolo[2,3-b]pyridin-5-yl)-6-(isopropylsulfonyl) imidazo[1,2-a]pyridine]	1 to 2.5	> 80	1 to 2.5	50 to 250
CC(N)COc1cc2ncc(-c3cc(Cl)c(N)nc3F)n2cc1S(=O)(=O)C(C)(C)C (centres unmarked) [Example 239, 5-(7-(2-aminopropoxy)-6-(tert-butylsulfonyl)imidazo [1,2-a]pyridin-3-yl)-3-chloro-6-fluoropyridin-2-amine]	2.5 to 20	> 80	2.5 to 20	250 to 1000
CC(C)(O)COc1cc2ncc(-c3cc(Cl)c(N)nc3F)n2cc1S(=O)(=O)C(C)(C)C [Example 240, 1-((3-(6-amino-5-chloro-2-fluoropyridin-3-yl)-6-(tert-butylsulfonyl)imidazo [1,2-a]pyridin-7-yl)oxy)-2-methylpropan-2-ol]	1 to 2.5	> 80	1 to 2.5	50 to 250
